Common to all, as to test: inhibition of tumour cell growth, NCI panel, 48 h
The test system of experiment [1] is A498.
Experiment [2] has as its system ACHN.
Experiment [3] relates to EKVX.
In experiment [4] the test system is HCC 2998.
Experiment [5] has as its system HCT-15.
Experiment [6] has as its system IGROV-1.
Experiment [7] has as its system K562.
Experiment [8] has as its system LOX IMVI.
For experiment [9], the system named is MOLT-4.
In experiment [10] the test system is Malme-3M.
Experiment [11] has as its system OVCAR-4.
The test system of experiment [12] is SK-MEL-28.
The subject of experiment [13] is SNB-78.
Experiment [14] concerns TK-10.
Experiment [15] has as its system UACC-257.

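Following 48 hours of exposure in 96-well plates, responses at five concentrations were used to interpolate endpoints linearly. GI50 is the concentration that inhibits growth by half.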 Activity calls are given as the source filed them. Rule as the data show it: active = GI50 up to about 1.1 µM and inactive = higher.

For the compound `Cc1ccc(NC(=O)C(=O)C(C(=O)c2ccc3ccccc3c2)C2OC(=O)c3ccccc32)c(C)c1` (stereo not given), the GI50 in [1] was 6.1 µM (inactive); in [2], 23.6 µM (inactive); in experiment [3], 19.1 µM (inactive); in experiment [4], 8.99 µM (inactive); in [5], 14.3 µM; in experiment [6] it was 10.9 µM (inactive). The GI50 in experiment [7] is 10.4 µM (inactive); in experiment [8], 10.6 µM (inactive); in experiment [9] it was 3.31 µM (inactive); in [10], 8.99 µM (inactive); in experiment [11], 6.76 µM (inactive); in experiment [12] it was 5.69 µM (inactive). Besides, the GI50 was 8.73 µM (inactive) in experiment [13], 20.3 µM (inactive) in experiment [14] and 12.8 µM (inactive) in experiment [15].

With `O=C(CSC(=S)N1CCCCC1)Nc1nc2c(s1)CCCC2`, the GI50 was > 100 µM (inactive) in [1]; 50 µM (inactive) in experiment [2]; 48.3 µM (inactive) in experiment [4]; 8.73 µM in [5]; > 100 µM (inactive) in experiment [6]; 13.8 µM (inactive) in experiment [8]. The GI50 in [9] is 11 µM (inactive); in [10], > 100 µM (inactive); in experiment [11], 91.8 µM (inactive); in [12] it was 64.7 µM (inactive); in [13], > 100 µM (inactive); in experiment [14] it was 16.4 µM (inactive). Further, in experiment [15], the GI50 was 23.3 µM (inactive).

As for `COc1cc(C(=O)C/C(CCCC(=O)Nc2ccccc2[N+](=O)[O-])=N/NC(=O)c2cc3ccccc3cc2O)ccc1O`, the GI50 was > 100 µM (inactive) in experiment [1]; 28.9 µM (inactive) in experiment [2]; 16.5 µM (inactive) in [3]; 28.9 µM (inactive) in experiment [4]; 20.2 µM in [5]; 34.4 µM (inactive) in [6]. Further, the GI50 in experiment [7] was 20.2 µM (inactive); in [8] it was 23.9 µM (inactive); in experiment [9], 26.1 µM (inactive); in experiment [10], 29.2 µM (inactive); in [11], 38.3 µM (inactive); in [12], 58.2 µM (inactive). The GI50 was > 63.8 µM (inactive) in experiment [13], 52.5 µM (inactive) in experiment [14] and 27.7 µM (inactive) in experiment [15].

`O=C(c1ccc(Cl)cc1)c1ccc(OCCSCCCCCCCCCCSCCOc2ccc(C(=O)c3ccc(Cl)cc3)cc2)cc1`: the GI50 in experiment [1] is > 100 µM (inactive); in [2] it was > 100 µM (inactive); in [3], > 100 µM (inactive); in [4], > 100 µM (inactive); in experiment [5], over 100 µM; in experiment [6], > 100 µM (inactive). Also, the GI50 in experiment [7], in experiment [8], in experiment [9], in experiment [10], in experiment [12] and in experiment [13] was > 100 µM (inactive) throughout. Further, the GI50 in experiment [14] and in [15] was > 100 µM (inactive) in each case.

Consider `O=C1COc2cc(NC(=S)Nc3ccccc3)ccc2N1`, for which the GI50 in [2] is > 100 µM (inactive); in experiment [3] it was > 100 µM (inactive); in experiment [4], > 100 µM (inactive); in experiment [5], over 100 µM; in experiment [6] it was > 100 µM (inactive); in [7] it was > 100 µM (inactive). In addition, the GI50 in [8], in experiment [9], in experiment [10], in experiment [11], in [12] and in [13] was > 100 µM (inactive) in each case. The GI50 in experiment [14] and in experiment [15] was > 100 µM (inactive) throughout.

For `COc1cccc(/C=N\NC(=O)C(C)SC(C)C(=O)N/N=C/c2cccc(OC)c2)c1` (stereo not given), the GI50 is 13 µM (inactive) in [1]; 18.9 µM (inactive) in experiment [2]; 27 µM (inactive) in [3]; 18.5 µM (inactive) in [4]; over 100 µM in experiment [5]; 20.3 µM (inactive) in experiment [6]. In addition, the GI50 in experiment [7] was > 78.3 µM (inactive); in experiment [8], > 10 µM (inactive); in experiment [9], 39.4 µM (inactive); in experiment [10] it was 42 µM (inactive); in experiment [11], 16.8 µM (inactive); in experiment [12] it was 36.6 µM (inactive). For the same compound, the GI50 in [13] was 36 µM (inactive); in experiment [14], 19.1 µM (inactive); in experiment [15] it was 59.3 µM (inactive).

`CCOC(=O)c1cccc(=O)c(C(=O)OCC)c1`: the GI50 in [1] is > 100 µM (inactive); in experiment [2] it was 63.7 µM (inactive); in [3], > 100 µM (inactive); in experiment [4], > 100 µM (inactive); in experiment [5] it was 40.3 µM; in [6] it was 74 µM (inactive). Further, the GI50 is 36.1 µM (inactive) in [7]; 35.7 µM (inactive) in [9]; 66.1 µM (inactive) in experiment [10]; 48.1 µM (inactive) in [11]; 38.6 µM (inactive) in experiment [12]; 57.3 µM (inactive) in experiment [13]. Also, the GI50 is > 100 µM (inactive) in [14] and 57.8 µM (inactive) in experiment [15].

In the case of `CC(C)(C)c1cc(C#N)c2c(c1)C(=O)OC2(c1ccccc1)c1ccccc1C#N` (stereo not given), the GI50 in experiment [1] was > 100 µM (inactive); in [2], > 100 µM (inactive); in experiment [3], > 100 µM (inactive); in [5] it was 29.5 µM; in experiment [6] it was > 100 µM (inactive); in experiment [7], 45.4 µM (inactive). Besides, the GI50 in experiment [8] is > 100 µM (inactive); in experiment [9], 23.8 µM (inactive); in experiment [10], > 100 µM (inactive); in experiment [11], > 100 µM (inactive); in experiment [12], > 100 µM (inactive); in [13] it was > 100 µM (inactive). The values for the GI50 in experiment [14] and in experiment [15] were > 100 µM (inactive) and 87.7 µM (inactive), respectively.

For the compound `O=C(NC1CCCCC1)c1c(O)[nH]c(=S)[nH]c1=O`, the GI50 in [1] is > 100 µM (inactive); in [2], 83 µM (inactive); in experiment [5], over 100 µM; in experiment [6] it was > 100 µM (inactive); in experiment [8], > 100 µM (inactive); in experiment [9] it was > 100 µM (inactive). The GI50 is > 100 µM (inactive) in experiment [10]; > 100 µM (inactive) in experiment [11]; > 100 µM (inactive) in [12]; 99.1 µM (inactive) in experiment [13]; > 100 µM (inactive) in experiment [14]; > 100 µM (inactive) in experiment [15].

Regarding `COc1cc(C(=O)C/C(CCC(=O)Nc2ccc(Cl)cc2C)=N/NC(=O)C(N)=O)ccc1O`, the GI50 in experiment [1] is > 100 µM (inactive); in experiment [2], > 100 µM (inactive); in experiment [3], > 100 µM (inactive); in experiment [4], > 100 µM (inactive); in experiment [5], over 100 µM; in [6] it was > 100 µM (inactive). Moreover, the GI50 in experiment [7], in [8], in experiment [9], in experiment [10], in experiment [11] and in [13] was > 100 µM (inactive) in each case. The GI50 in [14] and in experiment [15] was > 100 µM (inactive) in each case.

In the case of `CCOc1ccc2c(c1)[n+]([O-])c(-c1ccc([N+](=O)[O-])cc1)c(N)[n+]2[O-]`, the GI50 in experiment [1] is > 100 µM (inactive); in [2], > 100 µM (inactive); in experiment [3] it was > 100 µM (inactive); in experiment [6], > 100 µM (inactive); in experiment [7], > 100 µM (inactive); in experiment [9], 52.2 µM (inactive). Besides, the GI50 in experiment [10], in experiment [11], in experiment [12], in experiment [13] and in experiment [15] was > 100 µM (inactive) throughout.

With `CCCCn1c(-c2ccccc2)cs/c1=N\NC(=O)Cn1c(C)nc2ccccc21`, the GI50 in experiment [1] was > 100 µM (inactive); in [2], 75.9 µM (inactive); in experiment [3] it was 47.1 µM (inactive); in experiment [4] it was 89.1 µM (inactive); in [5], 97.9 µM; in experiment [6], > 100 µM (inactive). Further, the GI50 in experiment [7] was 14.5 µM (inactive); in [8], 32.6 µM (inactive); in experiment [9] it was 16.3 µM (inactive); in experiment [10], 35.7 µM (inactive); in [11] it was 6.12 µM (inactive); in experiment [13], > 100 µM (inactive). For the same compound, the GI50 is > 100 µM (inactive) in experiment [14] and 34.5 µM (inactive) in [15].

`CNC(=O)OCc1cc2ccncc2c2c1[nH]c1ccccc12`: the GI50 in experiment [2] was 5.47 µM (inactive); in experiment [3], > 100 µM (inactive); in experiment [4], > 58.5 µM (inactive); in experiment [5] it was over 23.8 µM; in experiment [6] it was > 26.9 µM (inactive); in experiment [7], 17.9 µM (inactive). The GI50 in experiment [8] was > 22.1 µM (inactive); in experiment [9] it was 4.05 µM (inactive); in [10], > 100 µM (inactive); in experiment [11] it was > 100 µM (inactive); in [12] it was > 100 µM (inactive); in [13] it was > 72.6 µM (inactive). The GI50 in experiment [14] and in experiment [15] was > 100 µM (inactive) each time.

As for `CC(C)(C)OC(=O)NC1CCC[C@H]1O` (stereo not given in full), the GI50 in experiment [1], in [2], in experiment [3], in experiment [4], in experiment [7] and in [8] was > 100 µM (inactive) in each case. Also, the GI50 in experiment [9] is > 100 µM (inactive); in experiment [10] it was 0.265 µM (active); in experiment [11], > 100 µM (inactive); in experiment [12] it was > 100 µM (inactive); in experiment [13], > 100 µM (inactive); in experiment [14] it was > 100 µM (inactive). Further, the GI50 in experiment [15] is > 100 µM (inactive).

As for `COC(=O)CC1CCN(C#N)CC1CC[N+](=O)[O-]` (stereo not given), the GI50 in experiment [1] is > 100 µM (inactive); in [2], > 100 µM (inactive); in [4] it was > 100 µM (inactive); in experiment [5] it was over 100 µM; in experiment [6] it was > 100 µM (inactive); in experiment [7] it was > 100 µM (inactive). In addition, the GI50 in experiment [9], in experiment [10], in experiment [11], in [12], in experiment [13] and in experiment [14] was > 100 µM (inactive) throughout. Also, the GI50 in experiment [15] was > 100 µM (inactive).

The record behind these values is ChEMBL document CHEMBL1201862, “PubChem BioAssay data set” (2004).
